The text below walks through data of a melting point compilation (Tetko et al.; mined from patent text by program, amines drawn as free bases though some values may be those of a salt).

Usually melting point stands for the temperature, or range, at which the solid turns liquid. In the case of `CC(C)(C)OC(=O)NCc1ccc(C2(C)OCCO2)cc1`, the melting point was in the range of 105 to 107 °C.

Take `CC(C)(O)Cn1c(CON2C(=O)c3ccccc3C2=O)nc2c(N)nc3ccccc3c21`: the melting point is 270 to 272 °C.

For the compound `COCCOCCOCCOCCNS(=O)(=O)c1ccc(NC=C2C(=O)Nc3ccc4ncsc4c32)cc1`, the melting point lay in the range of 158 to 159 °C.

The compound `O=C1NC(C(=O)NCCCO[N+](=O)[O-])CS1` (stereo not given) gave a melting point of 83 to 85 °C.

`C=CCc1cc2c(c(CC=C)c1O)CCC(=O)N2Cc1ccc(C(=O)O)cc1` returned a melting point of 242 to 246 °C.

`CCOC(=O)c1cn(-c2ccccc2)c2ccc(CN3CCOCC3)cc2c1=O` registered a melting point of 159 to 161 °C.

`O=C1OC(c2ccccc2)=NC1=Cc1cccnc1` displayed a melting point of 164 °C.

The compound `COC(=O)c1c(-c2cc(C)c(O)c(C)c2)c(C)n2c1-c1cc(OC)c(OC)cc1CC2C` (racemic) yielded a melting point of 177 to 179 °C.

The compound `CC1CC(=O)NN=C1c1ccc(N)cc1` (single isomer, unassigned; (-)) yielded a melting point of 203 to 204 °C.

`COC(=O)CCc1ncc(O)c(C(=O)OC)c1C(=O)OC` returned a melting point of 66 to 67 °C.

For `COC(=O)c1[nH]cc(C(=O)NCc2ccc(F)cc2)c(=O)c1OC`, the melting point lay within 242 to 244 °C.

Compound `CCCCC[C@@H](CNC(=O)Nc1c(N2CCOCC2)ncnc1N1CCOCC1)c1cccc2c1OCO2` showed a melting point of 128 to 132 °C.

As to `CCOC(=O)CNC(=S)Cc1cnc(C)c2c1COC(C)(C)O2`, the melting point lay within 156 to 158 °C.

Turning to `CC(=O)Nc1ccc(C#N)c(F)c1`, the melting point lay within 190 to 192 °C.

Compound `CCOC(=O)c1c[nH]c2cnc3cc(F)c(F)cc3c2c1=O` showed a melting point of 300 °C.

Compound `Cc1ccccc1NC(=N)NC12CC3CC(CC(C3)C1)C2` gave a melting point of 160 to 161 °C.

For the compound `CCOc1c(N)c2c(c(OCC)c1OCC)C(C1c3c(cc4c(c3OC)OCO4)CCN1C)OC2=O` (stereo not given), the melting point lay in the range of 180 to 182 °C.

`Nc1ncc(-c2noc(-c3cnn4c(C(F)(F)F)cc(-c5ccc(Cl)cc5)nc34)n2)cn1` registered a melting point of 268 °C.

`CCC(=O)C(C=O)=Cc1cc(O)c(O)c(C#N)c1` gave a melting point of 228 to 232 °C.

Turning to `O=C(O)c1cc(N=Cc2ccccc2)ccc1O`, the melting point fell in the range of 213 to 215 °C.

`CC(C)(C)c1ccc(C#N)cc1[N+](=O)[O-]`: the melting point lay within 70.5 to 71.5 °C.

As to `O=C(c1ccccc1)c1cccc2c1CCC2C(=O)NO` (stereo not given), the melting point came to 160 °C.

`O=S(=O)(c1ccccc1)n1ccc2c(CBr)cccc21` had a melting point of 127 to 128 °C.

On to `CCCCCC(O)C=Cn1c(=O)n(CCN2CCN(c3ccccc3OC)CC2)c(=O)c2ccccc21` (stereo not given), for which the melting point is 118 to 119 °C.

In turn, `COc1cc(C=CC(=O)C(Cc2ccccc2)C(=O)C=Cc2ccc(O)c(OC)c2)ccc1O` (stereo not given) gave a melting point of 139 to 141 °C.

`CCOC(=O)c1cc2c(=O)n(C3CCCC3)c3ccccc3n2c1`: the melting point was in the range of 183 to 185 °C.

`O=C1c2ccccc2C2(c3ccccc3)N1CCS2(=O)=O` (stereo not given) registered a melting point of 190 to 193 °C.

For the compound `CCCCCCC1C(=O)CCC1C(=O)O` (stereo not given), the melting point lay in the range of 73 to 74 °C.

Take `O=C1CC(C(=O)O)CC(O)=C1N=Nc1ccccc1` (stereo not given): the melting point stood at 218 °C.

As for `C#Cc1ncn2c1CN(C)C(=O)c1c(Cl)cccc1-2`, the melting point was in the range of 194 to 195 °C.

On to `CC(=O)Nc1c(C(=O)c2ccc(Cl)c(Cl)c2)[nH]c2cc(Cl)ccc12`, for which the melting point fell in the range of 169 to 171 °C.

`CCCc1c(OCCCCCC(=O)c2cc(O)c(O)cc2F)ccc(C(=O)O)c1O` returned a melting point of 193 to 195 °C.

`N#Cc1c(-c2cc3ccccc3s2)nn(-c2ccccc2)c1N` yielded a melting point of 260 to 262 °C.

For the compound `CCOCc1nc2c(N)nc3cc(-c4ccncc4)ccc3c2n1CC(C)C`, the melting point was 211 to 213 °C.

The compound `CCCCc1nn2c(c1Cc1ccc(-c3ccccc3)c(C(=O)O)c1)CCCC2` registered a melting point of 162 °C.

Take `NC(=O)c1nc(-c2ccc(Oc3ccc(F)cc3)c(F)c2)cs1`: the melting point was determined as 183 °C.

Compound `CCNC(=O)NCc1ccc(/C=C/C(c2cc(Cl)cc(Cl)c2)C(F)(F)F)cc1Cl` (stereo not given) yielded a melting point of 177 to 178 °C.

With `CCN(CC)C(=O)c1cc2sccc2c(-c2ccccc2Cl)n1`, the melting point was found to be 119 °C.

Compound `CCN(CC)CCCNc1ncc2cc(-c3c(Cl)cccc3Cl)c(NC(=O)NC(C)C)nc2n1` displayed a melting point of 88 to 100 °C.

Take `COc1cc2c(cc1Nc1ncc(Cl)c(N[C@@H]3CCCC[C@H]3NS(C)(=O)=O)n1)CCN(C(=O)CN(C)C)CC2`: the melting point was 128 to 141 °C.

Take `CC(=O)N[C@@H](CSC(=O)c1ccccc1)C(=O)NCCSC(=O)c1ccccc1`: the melting point lay in the range of 188 to 190 °C.

As for `O=C(N[C@@H](Cc1ccccc1)[C@@H](O)[C@H](O)[C@H](Cc1ccccc1)NC(=O)c1ccccn1)c1ccccn1`, the melting point is 179 to 184 °C.

Take `CC(C)(C)OC(=O)NC1CNC(=O)C12CC2` (stereo not given): the melting point is 178 to 181 °C.

The compound `O=C(Nc1ccc(Cl)cn1)c1cc(Cl)ccc1NCC1CCN(C2CCCCC2)CC1` showed a melting point of 186 to 188 °C.

Take `CN(C)CCN(c1ccccc1NCCOc1ccc(Cl)cc1)S(=O)(=O)c1ccc(Cl)cc1`: the melting point was 99 °C.

In turn, `Cc1nc(C#CCCc2nc3ccccc3o2)c[nH]1` registered a melting point of 152 to 154 °C.

For the compound `COc1ccc(-c2cc(=Nc3ccc(OCC(O)CNC(C)C)cc3)n(C)c(=O)n2C)cc1OC` (stereo not given), the melting point was in the range of 129 to 132 °C.

As to `CC1(c2ccc(C#N)cc2)C(=O)N(Cc2ccc(F)cc2)Cc2cncn21` (stereo not given), the melting point lay in the range of 66 to 70 °C.

`CN(C)CCCOc1cccc(CC(=O)c2cccc(OCCCN(C)C)c2)c1`: the melting point lay in the range of 102 to 105 °C.

As to `CC1=C(c2ccnnc2)SCC(=O)N1`, the melting point was in the range of 231 to 233 °C.

Regarding `CC1(C)COC(c2cc(F)c(F)c([Si](C)(C)C)c2F)=N1`, the melting point is 71 to 72 °C.

Consider `CCCCOc1ccc(-c2ccc(-c3ccc(-c4ccc(-c5ccc(OCCCC)cc5)s4)c4nsnc34)s2)cc1`, for which the melting point lay within 330 to 331 °C.

For the compound `Cc1ccc(-c2ccccc2C(=O)NCc2ccc([N+](=O)[O-])cc2)cc1`, the melting point lay within 153 to 154 °C.

As for `O=C(CCCN1CCC2(CC1)OC(c1ccccc1)c1ccccc12)c1ccc(F)cc1` (stereo not given), the melting point is 137 to 138 °C.

`Cc1c(-c2ccncc2)[nH]c(-c2ccncc2)c1C=O` showed a melting point of 278 to 280 °C.

`O=Cc1c2ccccc2c(OCCO)c2ccccc12`: the melting point lay within 142 to 144 °C.

With `Cc1oc(-c2ccccc2)nc1COc1ccc(Cn2cc(C(=O)O)c(-c3ccccc3)n2)cc1`, the melting point was 165 to 166 °C.

`CN1NCc2c(Cl)ncnc21` gave a melting point of 97 to 99 °C.

`CCOC(=O)C(C)c1ccc(NC2OC(=O)c3ccccc32)cc1` (stereo not given): the melting point is 136 to 139 °C.

As for `Cc1ccc(Sc2cncc3sc(C(=O)NC=NN)cc23)cc1`, the melting point was in the range of 202 to 205 °C.

As to `Cn1c2ccccc2c2c(C(=O)O)c(C(=O)O)ccc21`, the melting point turned out to be 294 °C.

The compound `COc1ccc(C(=O)Nc2ccccc2)cc1NC(=S)Nc1ccc(Cl)c(Cl)c1` displayed a melting point of 174 to 175 °C.

With `CCCc1nc2c(N)nc3cc(OCCN4CCCC4)ccc3c2s1`, the melting point fell in the range of 124 to 127 °C.

In turn, `COc1c(O)ccc(C=O)c1[N+](=O)[O-]` returned a melting point of 136 to 137 °C.

In turn, `COC(=O)c1ccc(Nc2ccc([N+](=O)[O-])cc2C(=O)OC)cc1` showed a melting point of 205 to 206 °C.

`Cc1ncc(C(=O)O)cn1` showed a melting point of 166 to 170 °C.

Compound `O=C(NCCc1ccc(O)c(F)c1)OCc1ccccc1` had a melting point of 89 to 90 °C.

In turn, `CC(C)(C)[C@H]1CC[C@H](CCC(=O)O)CC1` showed a melting point of 105 to 107 °C.

In the case of `CC(C)NS(=O)(=O)Cc1ccc([N+](=O)[O-])cc1`, the melting point lay in the range of 146 to 147 °C.

On to `CC(=O)OC1O[C@H](CN=[N+]=[N-])[C@H](OC(C)=O)[C@H](OC(C)=O)[C@H]1OC(C)=O` (stereo not given in full), for which the melting point is 89.9 to 90.3 °C.

Take `CCOC(=O)C(=CNc1ccnc(-c2ccncc2)n1)C(=O)OCC`: the melting point was 143 to 145 °C.

`CCCOCCOc1ccc(OCC(O)CNCCNC(N)=O)cc1` (stereo not given): the melting point was found to be 115 °C.

The compound `COC(=O)c1nc(N)ccc1O` had a melting point of 170 to 173 °C.

On to `COc1ccc(C2(CC3CO3)S(=O)(=O)CCCS2(=O)=O)cc1OC` (stereo not given), for which the melting point lay in the range of 175 to 176 °C.

As for `Cc1cc(C#N)cc(C(=O)c2[nH]c(=O)[nH]c(=O)c2C(C)(C)C)c1`, the melting point lay within 270 to 271 °C.

The compound `CONC(C(C)=O)c1cc(-n2c(=O)cc(C(F)(F)F)n(C)c2=O)ccc1Cl` (stereo not given) showed a melting point of 160 to 161 °C.

For `COc1ccc(Nc2nc(Cl)nc(OCC3CCCCC3)n2)cc1F`, the melting point stood at 98 °C.

Consider `O=C(Cn1c(-c2ccc(Cl)cc2)nc2cccnc21)Nc1nccs1`, for which the melting point is greater than 260 °C.

Compound `CC(C)(C)NC(=O)c1ccc(C(O)CCCc2cn([Si](C)(C)C)cn2)cc1` (stereo not given) registered a melting point of 141 to 143 °C.

`COc1ccc(C(C)N(C)CCCOc2ccc(S(=O)(=O)c3c(C(C)C)cn4ccccc34)cc2)cc1` (stereo not given) displayed a melting point of 140 to 144 °C.

For the compound `CSC(=NC#N)NCCSCc1cccnc1Nc1ccccc1`, the melting point fell in the range of 120 to 123 °C.

In turn, `CC1(C)CC(N(C=O)C2CCCCC2)CC(C)(C)N1` gave a melting point of 105 °C.

`O=C1N(CC(O)CO)c2ccccc2C12COc1cc3c(cc12)OCCO3` (stereo not given) returned a melting point of 179 to 181 °C.

On to `CC(N)Cc1ccc(OCC(=O)NCCc2ccc(O)cc2)cc1` (stereo not given), for which the melting point was in the range of 160 to 163 °C.

Turning to `CCc1cc(Cl)c(NC(C)=O)c(Cl)n1`, the melting point was 142 °C.

`CC(=O)Nc1ncc2cc(-c3c(Cl)cccc3Cl)c(NC(C)=O)nc2n1` gave a melting point of 223 to 225 °C.

In turn, `CC1CCCN(C[C@@H]2COc3ccc(S(C)(=O)=O)cc3O2)C1` (stereo not given in full) showed a melting point of 159 °C.

Regarding `CCCCCc1ccc(-c2cnc(-c3ccc(C#N)cc3)nc2)cc1`, the melting point stood at 126 °C.

With `Clc1ccc(Nc2nnc(Cl)c3sccc23)cc1`, the melting point was in the range of 139 to 142 °C.

`COc1cccc(/C=C/C(=O)/C=C/C(=O)O)c1` yielded a melting point of 158 to 160 °C.
